Patent publication US20160122320A1, “USEFUL COMBINATIONS OF MONOBACTAM ANTIBIOTICS WITH BETA-LACTAMASE INHIBITORS” (Basilea Pharmaceutica AG, priority 2005, published 2016)
Values joined by “and” are separate entries in the source; they are usually repeats but may differ in a detail not shown here. Identical values can stand only once. Counter-ions that a name gives are not always drawn.

What was measured:
Experiment in all cases: MIC, NCCLS broth microdilution
Format in all cases: cell-based
[1] = test system: Klebsiella pneumoniae CF104
[2] = test system: Acinetobacter sp. J2; details: for MIC of antibiotic: antibiotic alone, no inhibitor
Experimental: (§1) Antimicrobial activity of the compounds and of their combinations was determined against a selection of organisms according to the standard procedures described by the National Committee for Clinical Laboratory Standards (National Committee for Clinical Laboratory. Standards (2000). Methods for Dilution Antimicrobial Susceptibility Tests for Bacteria That Grow Aerobically-Fifth Edition: Approved Standard M7-A5. NCCLS, Wayne, Pa., USA).
(§2) In all cases the final concentration of DMSO incubated with the bacteria is less than or equal to 1%. […] Plates were incubated overnight at an appropriate temperature (30° C. or 37° C.) and optical densities assessed by eye. The MIC value is defined as the lowest compound concentration completely inhibiting visible growth of the test organism. When combinations between compounds of formula I with compounds of formula II and are evaluated the compounds of formula I are tested in dilution series as described above while the compounds of formula II and III-XIII were present in all wells at a constant concentration of 4 μg/mL each.

[3] = test system: Pseudomonas aeruginosa 1973E
Summary of the method: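 MIC read by eye as the lowest concentration giving no visible growth after overnight incubation (30° C. or 37° C.), following NCCLS M7-A5 microdilution with ≤1% final DMSO. For combinations, partner compounds (formula II, III-XIII) were fixed at 4 μg/mL each while formula I compounds were titrated.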

[4] = test system: Stenotrophomonas malthophilia 1AC736; details: for MIC of antibiotic: antibiotic alone, no inhibitor
[5] = test system: Serratia marcescens S6
[6] = test system: Enterobacter cloacae P99
Experimental: as §1, §2

[7] = test system: Pseudomonas aeruginosa MK1184
[8] = MIC of antibiotic compound 1 with the labelled bridged monobactam of formula II and clavulanate, 4 mg/L each

SMILES | MIC of antibiotic at fixed inhibitor concentration (4 mg/L) [1, 8] | MIC of antibiotic at fixed inhibitor concentration (4 mg/L) ([2]; Acinetobacter sp. J2, MIC of antibiotic compound 1 with the labelled bridged monobactam of formula II and clavulanate, 4 mg/L each) | MIC of antibiotic at fixed inhibitor concentration (4 mg/L) [3, 8] | MIC of antibiotic at fixed inhibitor concentration (4 mg/L) ([4]; Stenotrophomonas malthophilia 1AC736, MIC of antibiotic compound 1 with the labelled bridged monobactam of formula II and clavulanate, 4 mg/L each) | MIC of antibiotic at fixed inhibitor concentration (4 mg/L) [5, 8] | MIC of antibiotic at fixed inhibitor concentration (4 mg/L) [6, 8] | MIC of antibiotic at fixed inhibitor concentration (4 mg/L) [7, 8] | MIC of antibiotic ([1]; antibiotic alone, no inhibitor) | MIC of antibiotic ([2]; Acinetobacter baumannii J2) | MIC of antibiotic ([2]; Acinetobacter sp. J2) | MIC of antibiotic ([3]; antibiotic alone, no inhibitor) | MIC of antibiotic ([4]; Stenotrophomonas malthophilia 1AC736) | MIC of antibiotic ([4]; Stenotrophomonas maltophilia 1AC736) | MIC of antibiotic ([5]; antibiotic alone, no inhibitor) | MIC of antibiotic ([6]; antibiotic alone, no inhibitor) | MIC of antibiotic ([7]; antibiotic alone, no inhibitor)
C[N+]1(CC(=O)N2CC[C@@H]3[C@H]2C(=O)N3S(=O)(=O)[O-])CCN(C(=O)n2ccnc2)CC1 [Compound 407, (1S,5R)-2-{2-[4-(imidazolylcarbonyl)-1-methylpiperazinium]acetyl}-7-oxo-2,6-diazabicyclo[3.2.0]heptane-6-sulfonate, inner salt] | 1 µg/mL | >32 µg/mL | 8 µg/mL | 0.125 µg/mL | 0.5 µg/mL | 32 µg/mL | >32 µg/mL |  |  |  |  |  |  |  |  | 
C[C@@H](O)[C@H]1C(=O)N2C(C(=O)O)=C(S[C@@H]3CN[C@H](C(=O)N(C)C)C3)[C@H](C)[C@H]12 [Meropenem, meropenem, reference compound] |  |  |  |  |  |  |  | <0.06 µg/mL | 2 µg/mL | 2 µg/mL | 1 µg/mL | 32 µg/mL | 32 µg/mL | 16 µg/mL | 0.13 µg/mL and 0.125 µg/mL | 2 µg/mL
